# Biological target: T1, human APJ receptor (Homo sapiens, UniProt P35414)
# T1 construct: expressed in transfected cells
# T1 sequence (P35414 1-380): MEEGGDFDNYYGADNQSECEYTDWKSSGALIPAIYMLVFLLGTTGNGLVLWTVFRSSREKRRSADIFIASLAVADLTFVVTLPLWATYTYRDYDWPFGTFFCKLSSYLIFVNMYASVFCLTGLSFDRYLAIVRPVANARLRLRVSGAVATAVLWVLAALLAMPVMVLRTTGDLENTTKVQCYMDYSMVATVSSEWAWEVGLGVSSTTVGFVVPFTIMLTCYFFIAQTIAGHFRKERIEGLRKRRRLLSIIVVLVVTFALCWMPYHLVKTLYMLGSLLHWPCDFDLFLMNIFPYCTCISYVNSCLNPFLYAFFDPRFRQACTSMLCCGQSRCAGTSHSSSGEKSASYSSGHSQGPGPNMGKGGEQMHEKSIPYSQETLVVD
# Experiment: Intracellular cAMP accumulation assay (APJ hcAMP, HTRF)
# Type: cell-based
# Settings: HEK293 cells stably expressing human APJ; read-out: Human cAMP Potency range
# In short: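 Inhibition of forskolin (2 μM)-stimulated cAMP, with […], was measured after 30 min compound exposure at room temperature in stably transfected HEK293 cells. HTRF ratios were converted to cAMP via standard curve, and EC50 values came from variable-slope sigmoidal concentration-response fitting.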
row,Structure (SMILES),EC50
1,"CCNCc1nc(O)c(C(=O)N2CCC(c3cccc(F)c3)C2)c(O)c1-c1c(OC)cccc1OC (single isomer, unassigned) [Example 149, 5-(2,6-dimethoxyphenyl)-6-[(ethylamino)methyl]-3-[3-(3-fluorophenyl)pyrrolidine-1-carbonyl]pyridine-2,4-diol]",100 to 300 nM

# Same assay, conditions: Table 1; HEK293 cells stably expressing human APJ, forskolin-stimulated cAMP; read-out: APJ cAMP EC50
row,Structure (SMILES),EC50
1,CCCCc1nc(O)c(C(=O)N2CCN(c3ccccn3)CC2)c(O)c1-c1c(OC)cccc1OC [Example 59],10 to 100 nM
2,"CCCCc1nc(O)c(C(=O)N2CCC(c3ccccc3Cl)CC2)c(O)c1-c1c(OC)cccc1OC [Example 23, 6-butyl-3-[4-(2-chlorophenyl)piperidine-1-carbonyl]-5-(2,6-dimethoxyphenyl)pyridine-2,4-diol]",10 to 100 nM
3,"CCCCc1nc(O)c(C(=O)N2CCC(Cc3ccccc3)CC2)c(O)c1-c1c(OC)cccc1OC [Example 14, 3-(4-benzylpiperidine-1-carbonyl)-6-butyl-5-(2,6-dimethoxyphenyl)pyridine-2,4-diol]",0.01 to 10 nM
4,"CCCCc1nc(O)c(C(=O)N2CCC3(CC2)CC(=O)Nc2ccccc23)c(O)c1-c1c(OC)cccc1OC [Example 66, 1-[6-butyl-5-(2,6-dimethoxyphenyl)-2,4-dihydroxypyridine-3-carbonyl]-2′,3′-dihydro-1′H-spiro[piperidine-4,4′-quinoline]-2′-one]",10 to 100 nM
5,"CCCCc1nc(O)c(C(=O)N2CCN(c3nnnn3-c3ccccc3)CC2)c(O)c1-c1c(OC)cccc1OC [Example 52, 6-butyl-5-(2,6-dimethoxyphenyl)-3-[4-(1-phenyl-1H-1,2,3,4-tetrazol-5-yl)piperazine-1-carbonyl]pyridine-2,4-diol]",0.01 to 10 nM
6,"CCCCc1nc(O)c(C(=O)N2CCN(c3nc4ccccc4s3)CC2)c(O)c1-c1c(OC)cccc1OC [Example 54, 3-[4-(1,3-benzothiazol-2-yl)piperazine-1-carbonyl]-6-butyl-5-(2,6-dimethoxyphenyl)pyridine-2,4-diol]",10 to 100 nM
7,"CCCCc1nc(O)c(C(=O)N2CCC(O)(c3ccccc3)CC2)c(O)c1-c1c(OC)cccc1OC [Example 46, 6-butyl-5-(2,6-dimethoxyphenyl)-3-(4-hydroxy-4-phenylpiperidine-1-carbonyl)pyridine-2,4-diol]",10 to 100 nM
8,"CCCCc1nc(O)c(C(=O)N2CCC(O)(c3cccnc3)CC2)c(O)c1-c1c(OC)cccc1OC [Example 4, 6-butyl-5-(2,6-dimethoxyphenyl)-3-[4-hydroxy-4-(pyridin-3-yl)piperidine-1-carbonyl]pyridine-2,4-diol]",100 to 300 nM
9,"CCCCc1nc(O)c(C(=O)N2CCN(c3cccnn3)CC2)c(O)c1-c1c(OC)cccc1OC [Example 21, 6-butyl-5-(2,6-dimethoxyphenyl)-3-[4-(pyridazin-3-yl)piperazine-1-carbonyl]pyridine-2,4-diol]",100 to 300 nM
10,"CCCCc1nc(O)c(C(=O)N2CCN(C3CCCCC3)CC2)c(O)c1-c1c(OC)cccc1OC [Example 63, 6-butyl-3-(4-cyclohexylpiperazine-1-carbonyl)-5-(2,6-dimethoxyphenyl)pyridine-2,4-diol]",10 to 100 nM

# Same assay, conditions: Table 2; HEK293 cells stably expressing human APJ, forskolin-stimulated cAMP; read-out: APJ cAMP EC50
row,Structure (SMILES),EC50
1,"CCCCc1nc(O)c(C(=O)N2CCC(c3nc(-c4cc(C)c(OC)cc4Cl)c(C)s3)C2)c(O)c1-c1c(OC)cccc1OC (racemic) [Example 9, 6-butyl-3-{3-[4-(2-chloro-4-methoxy-5-methylphenyl)-5-methyl-1,3-thiazol-2-yl]pyrrolidine-1-carbonyl}-5-(2,6-dimethoxyphenyl)pyridine-2,4-diol]",0.01 to 10 nM

# Same assay, conditions: Table 3; HEK293 cells stably expressing human APJ, forskolin-stimulated cAMP; read-out: APJ cAMP EC50
row,Structure (SMILES),EC50
1,"CCCCc1nc(O)c(C(=O)N2CCC(c3ncc(F)cc3F)C2)c(O)c1-c1c(OC)cccc1OC (stereo not shown) [Example 82, 6-butyl-3-[3-(3,5-difluoropyridin-2-yl)pyrrolidine-1-carbonyl]-5-(2,6-dimethoxyphenyl)pyridine-2,4-diol]",0.01 to 10 nM
2,"CCCCc1nc(O)c(C(=O)N2CCC(c3ccc(F)cn3)C2)c(O)c1-c1c(OC)cccc1OC (stereo not shown) [Example 79, 6-butyl-5-(2,6-dimethoxyphenyl)-3-[3-(5-fluoropyridin-2-yl)pyrrolidine-1-carbonyl]pyridine-2,4-diol]",0.01 to 10 nM
3,"CCOCc1nc(O)c(C(=O)N2CCC(c3ccc(Cl)cn3)C2)c(O)c1-c1c(OC)cccc1OC (stereo not shown) [Example 77, 3-[3-(5-chloropyridin-2-yl)pyrrolidine-1-carbonyl]-5-(2,6-dimethoxyphenyl)-6-(ethoxymethyl)pyridine-2,4-diol]",0.01 to 10 nM

# Same assay, conditions: Table 4; HEK293 cells stably expressing human APJ, forskolin-stimulated cAMP; read-out: Human cAMP EC50
row,Structure (SMILES),EC50
1,"CCCCc1nc(O)c(C(=O)N2CCN(CC3CCCCC3)CC2)c(O)c1-c1c(OC)cccc1OC [Example 109, 6-butyl-3-[4-(cyclohexylmethyl)piperazine-1-carbonyl]-5-(2,6-dimethoxyphenyl)pyridine-2,4-diol]",10 to 100 nM
2,"CCCCc1nc(O)c(C(=O)N2CCN(Cc3cccc(Cl)c3Cl)CC2)c(O)c1-c1c(OC)cccc1OC [Example 94, 6-butyl-3-{4-[(2,3-dichlorophenyl)methyl]piperazine-1-carbonyl}-5-(2,6-dimethoxyphenyl)pyridine-2,4-diol]",0.01 to 10 nM
3,CCCCc1nc(O)c(C(=O)N2CCN(CC3CC3)CC2)c(O)c1-c1c(OC)cccc1OC [Example 111],10 to 100 nM
4,"CCCCc1nc(O)c(C(=O)N2CCC(Cc3ccccc3C)CC2)c(O)c1-c1c(OC)cccc1OC [Example 106, 6-butyl-5-(2,6-dimethoxyphenyl)-3-{4-[(2-methylphenyl)methyl]piperidine-1-carbonyl}pyridine-2,4-diol]",0.01 to 10 nM
5,"CCCCc1nc(O)c(C(=O)N2CCN(Cc3ccc(Cl)cc3Cl)CC2)c(O)c1-c1c(OC)cccc1OC [Example 93, 6-butyl-3-{4-[(2,4-dichlorophenyl)methyl]piperazine-1-carbonyl}-5-(2,6-dimethoxyphenyl)pyridine-2,4-diol]",0.01 to 10 nM
6,"CCCCc1nc(O)c(C(=O)N(C)CCOc2ccccc2)c(O)c1-c1c(OC)cccc1OC [Example 99, 6-butyl-5-(2,6-dimethoxyphenyl)-2,4-dihydroxy-N-methyl-N-(2-phenoxyethyl)pyridine-3-carboxamide]",10 to 100 nM
7,"CCCCc1nc(O)c(C(=O)N2CCN(C(=O)c3ccc(Cl)cn3)CC2)c(O)c1-c1c(OC)cccc1OC [Example 105, 6-butyl-3-[4-(5-chloropyridine-2-carbonyl)piperazine-1-carbonyl]-5-(2,6-dimethoxyphenyl)pyridine-2,4-diol]",0.01 to 10 nM
8,"CCCCc1nc(O)c(C(=O)N2CC(Oc3ncccc3F)C2)c(O)c1-c1c(OC)cccc1OC [Example 115, 6-butyl-5-(2,6-dimethoxyphenyl)-3-{3-[(3-fluoropyridin-2-yl)oxy]azetidine-1-carbonyl}pyridine-2,4-diol]",0.01 to 10 nM
9,"CCCCc1nc(O)c(C(=O)N2CC[C@H](c3ccccc3)C2)c(O)c1-c1cc(OC)ccc1OC [Example 97, 6-butyl-5-(2,5-dimethoxyphenyl)-3-[(3R)-3-phenylpyrrolidine-1-carbonyl]pyridine-2,4-diol]",0.01 to 10 nM
10,"CCCCc1nc(O)c(C(=O)N2CCN(Cc3cccc(F)c3F)CC2)c(O)c1-c1cc(OC)ccc1OC [Example 110, 6-butyl-3-{4-[(2,3-difluorophenyl)methyl]piperazine-1-carbonyl}-5-(2,5-dimethoxyphenyl)pyridine-2,4-diol]",0.01 to 10 nM

# Same assay, conditions: Table 5; HEK293 cells stably expressing human APJ, forskolin-stimulated cAMP; read-out: Human cAMP EC50
row,Structure (SMILES),EC50
1,"COc1cccc(OC)c1-c1c(C2CCCC2)nc(O)c(C(=O)N2CCC(c3cccc(F)c3)C2)c1O (stereo not shown) [Example 125, 6-cyclopentyl-5-(2,6-dimethoxyphenyl)-3-[3-(3-fluorophenyl)pyrrolidine-1-carbonyl]pyridine-2,4-diol]",10 to 100 nM

# Same assay, conditions: Table 6; HEK293 cells stably expressing human APJ, forskolin-stimulated cAMP; read-out: Human cAMP EC50
row,Structure (SMILES),EC50
1,"CCOCc1nc(O)c(C(=O)N2CC[C@H](OCc3ccccc3)C2)c(O)c1-c1c(OC)cccc1OC [Example 137, 3-[(3S)-3-(benzyloxy)pyrrolidine-1-carbonyl]-5-(2,6-dimethoxyphenyl)-6-(ethoxymethyl)pyridine-2,4-diol]",10 to 100 nM
2,"CCOCc1nc(O)c(C(=O)N2CCC(c3c(F)cccc3F)C2)c(O)c1-c1c(OC)cccc1OC (stereo not shown) [Example 133, 3-[3-(2,6-difluorophenyl)pyrrolidine-1-carbonyl]-5-(2,6-dimethoxyphenyl)-6-(ethoxymethyl)-4-hydroxy-1,2-dihydropyridin-2-one]",0.01 to 10 nM
3,"CCCCc1nc(O)c(C(=O)N2CC[C@H](OCc3ccccc3)C2)c(O)c1-c1c(OC)cccc1OC [Example 136, 3-[(3S)-3-(benzyloxy)pyrrolidine-1-carbonyl]-6-butyl-5-(2,6-dimethoxyphenyl)pyridine-2,4-diol]",0.01 to 10 nM

# Same assay, conditions: Table 7; HEK293 cells stably expressing human APJ, forskolin-stimulated cAMP; read-out: Human cAMP EC50
row,Structure (SMILES),EC50
1,"CCCCc1nc(O)c(C(=O)N2CCC(c3ncc(F)cc3F)C2)c(O)c1-c1cccc(C(C)C)c1 (stereo not shown) [Example 141, 6-butyl-3-[3-(3,5-difluoropyridin-2-yl)pyrrolidine-1-carbonyl]-5-[3-(propan-2-yl)phenyl]pyridine-2,4-diol]",0.01 to 10 nM
2,"CCCCc1nc(O)c(C(=O)N2CCC(c3ncc(F)cc3F)C2)c(O)c1-c1cccc(C(=O)NC(C)C)c1 (stereo not shown) [Example 146, 3-{2-butyl-5-[3-(3,5-difluoropyridin-2-yl)pyrrolidine-1-carbonyl]-4,6-dihydroxypyridin-3-yl}-N-(propan-2-yl)benzamide]",0.01 to 10 nM

# — US10392347B2, “2,4-dihydroxy-nicotinamides as APJ agonists” (BRISTOL-MYERS SQUIBB COMPANY, priority 2015, dated 2019)
